Measured values: patent US11254640B2, “N-substituted indoles and other heterocycles for treating brain disorders” (The Regents of the University of California, priority 2019, dated 2022)
Read-outs that look alike come from different tables or passages of the source.

Assays:
Format in all cases: cell-based
[1] = test system: 5HT2A sensor; assay: 5HT2A sensor assay, agonist mode (sLight1.3s HEK293T stable line); details: percent relative to 5-HT at 100 uM; for 5HT2A Agonist mean @ 100 nM (%): 100 nM compound; for 5HT2A Agonist mean @ 10 μM (%): 10 μM compound; for 5HT2A Agonist mean @ 100 μM (%): 100 μM compound
In short: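 Agonist mode in HEK293T cells stably expressing the sLight1.3 5HT2A sensor, washed into HBSS; compounds at final 100 μM, 10 μM and 100 nM (0.1% DMSO), triplicate wells. Membrane fluorescence (ex 460, em 512-542 nm) imaged before and after addition; dFF=(Fsat−Fapo)/Fapo, expressed as percent activation (DMSO=0, 5HT=100).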

[2] = test system: 5HT2A sensor; assay: 5HT2A sensor assay, antagonist mode (sLight1.3s HEK293T stable line); details: relative to 5-HT at 100 nM; for 5HT2A Antagonist mean @ 100 nM (%): 100 nM compound; for 5HT2A Antagonist mean @ 10 μM (%): 10 μM compound; for 5HT2A Antagonist mean @ 100 μM (%): 100 μM compound
In short: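 Inactivation score is computed from membrane dFF as (dFF(compound+5HT)−dFF(5HT))/dFF(5HT), with HBSS-only fluorescence as Fapo. Final concentrations: 5-HT 100 nM added first, then compound at 100 nM, 10 μM or 100 μM in 0.1% DMSO. Triplicates; FITC imaging, 5 fields per well.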

[3] = biological target: T1, 5HT2A (Homo sapiens, UniProt P28223); assay: Calcium flux assay (Calcium secondary messenger pathway); details: agonist mode
T1 construct: expressed in transfected cells
From the text: Calcium Flux Assay. Calcium Secondary Messenger Pathway. The Calcium No Wash^PLUS assay monitors the activation of a GPCR (e.g., 5HT2A) via Gq secondary messenger signaling in a live cell, non-imaging assay format. Calcium mobilization in PathHunter® cell lines or other cell lines stably expressing Gq-coupled GPCRs (e.g., 5HT2A) is monitored using a calcium-sensitive dye that is loaded into cells. GPCR (e.g., 5HT2A) activation by a compound results in the release of calcium from intracellular stores and an increase in dye fluorescence that is measured in real-time. In some embodiments, the ability of a compound of the present invention to modulate 5-HT2A function is determined using a calcium flux assay. In some embodiments, a compound of the present invention activates a calcium flux assay.
Calcium Secondary Messenger Pathway. Cell lines were expanded from freezer stocks according to standard procedures. Cells were seeded in a total volume of 20 μL into black-walled, clear-bottom, Poly-D-lysine coated 384-well microplates and incubated at 37° C. for the appropriate time prior to testing. Assays were performed in 1× Dye Loading Buffer consisting of 1× Dye, 1× Additive A and 2.5 mM Probenecid in HBSS/20 mM Hepes. Probenicid was prepared fresh. Cells were loaded with dye prior to testing. Media was aspirated from cells and replaced with 20 μL Dye Loading Buffer. Cells were incubated for 30-60 minutes at 37° C.
For agonist determination, cells were incubated with sample to induce response. After dye loading, cells were removed from the incubator and 10 μL HBSS/20 mM Hepes was added. 3× vehicle was included in the buffer when performing agonist dose curves to define the EC80 for subsequent antagonist assays. Cells were incubated for 30 minutes at room temperature in the dark to equilibrate plate temperature. Intermediate dilution of sample stocks was performed to generate 4× sample in assay buffer. Compound agonist activity was measured on a FLIPR Tetra (MDS). Calcium mobilization was monitored for 2 minutes and 10 μL 4× sample in HBSS/20 mM Hepes was added to the cells 5 seconds into the assay.
Compound activity was analyzed using CBIS data analysis suite (ChemInnovation, CA). For agonist mode assays, percentage activity is calculated using the following formula: % Activity=100%×(mean RFU of test sample−mean RFU of vehicle control)/(mean MAX RFU control ligand−mean RFU of vehicle control).

[4] = test system: rat cortical neurons; assay: Neurite outgrowth assay; details: Cortical neurone, 1 hour treatment at DIV 4, analysed DIV 7, fold vs DMSO control
From the text: Neurite outgrowth assay. Changes in the pattern of neurite outgrowth have been implicated in neurodegenerative disorders as well as traumatic injuries. The discovery of new compounds that can positively affect neuritogenesis are important for developing new therapeutics for neurological diseases. Measurement of neurite outgrowth of rat cortical neurons using an automated image-based assay was used to determine the neuroplastic effects of the compounds of the present invention. In some embodiments, a compound of the present invention increases the pattern of neurite outgrowth. In some embodiments, a compound of the present invention increases neurite average length compared to a control. In some embodiments, a compound of the present invention increases neurite branch points compared to a control. In some embodiments, a compound of the present invention increases neurite average length and neurite branch points compared to a control.
Neurite Outgrowth Assay. Rat cortical neurons (20,000 cells/well) were freshly isolated from embryonic day 18 rats and cultured in Neurobasal Medium (+B27). The cultured cells were plated in 96 well-plates (avoiding external wells). At DIV 4, the neurons were treated with compound or control (10 μM) for 1 hour followed by complete washout of the compound. At DIV 7, the neurons were analyzed. The experiments were performed in triplicate. Neurite outgrowth was measured analyzing the following parameters: Number of Cell Bodies, total neurite length (pixels), Root Count, Segments, Extremities Count and node points. Changes in the pattern of neurite outgrowth of the neurons were analyzed by immunocytochemistry against β-III-tubulin. Pictures were acquired by the CellInsight CX7 from Thermo Fisher and analyzed using its software. Results generated in the equipment were maximum neurite length, extremity count, root count, dendrite branch points, and total neurite length. The results were compared to DMSO control, representing the fold-change in neuronal outgrowth.

[5] = read-out: Neurite Average Length @ 10 μM
[6] = read-out: Neurite Branch Points: @ 10 μM

T1 sequence (P28223 whole entry): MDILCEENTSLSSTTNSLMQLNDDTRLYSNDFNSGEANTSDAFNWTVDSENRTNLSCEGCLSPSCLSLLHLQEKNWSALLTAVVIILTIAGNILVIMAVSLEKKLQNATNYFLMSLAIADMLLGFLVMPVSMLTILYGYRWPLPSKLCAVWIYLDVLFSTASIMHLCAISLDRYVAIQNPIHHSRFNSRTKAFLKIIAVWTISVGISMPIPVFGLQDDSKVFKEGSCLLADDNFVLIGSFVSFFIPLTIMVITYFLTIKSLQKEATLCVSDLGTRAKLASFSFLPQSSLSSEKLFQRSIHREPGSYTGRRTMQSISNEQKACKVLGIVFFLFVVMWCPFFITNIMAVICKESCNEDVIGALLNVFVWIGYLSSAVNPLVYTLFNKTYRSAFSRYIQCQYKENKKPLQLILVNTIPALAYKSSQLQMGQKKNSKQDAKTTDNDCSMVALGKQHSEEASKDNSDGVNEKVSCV

SMILES	5HT2A Agonist mean @ 100 nM (%) [1]	5HT2A Agonist mean @ 10 μM (%) [1]	5HT2A Agonist mean @ 100 μM (%) [1]	5HT2A Antagonist mean @ 100 nM (%) [2]	5HT2A Antagonist mean @ 10 μM (%) [2]	5HT2A Antagonist mean @ 100 μM (%) [2]	EC50 [3]	fold induction at 10 µM [4, 5]	fold induction at 10 µM [4, 6]
Clc1ccc2c(ccn2CCN2CCCCC2)c1 [Example 48, 5-chloro-1-(2-(piperidin-1-yl)ethyl)-1H-indole]	B (does not activate 5HT2A sensor assay in agonist mode)	B (does not activate 5HT2A sensor assay in agonist mode)	B (does not activate 5HT2A sensor assay in agonist mode)	A (inhibits 5HT response by >100%)	A (inhibits 5HT response by >100%)	A (inhibits 5HT response by >100%)	> 10 µM	1.5 to 3	1.5 to 3
CC[C@@H](Cn1ccc2cc(OC)ccc21)N(C)C [Example 76, (S)-1-(5-methoxy-1H-indol-1-yl)-N,N-dimethylbutan-2-amine]	B (does not activate 5HT2A sensor assay in agonist mode)	B (does not activate 5HT2A sensor assay in agonist mode)	B (does not activate 5HT2A sensor assay in agonist mode)	A (inhibits 5HT response by >100%)	A (inhibits 5HT response by >100%)	A (inhibits 5HT response by >100%)	> 10 µM	1.5 to 3	1.5 to 3
COc1cc2ccn(C[C@@H](C)N(C)C)c2cc1F [Example 61, (R)-1-(6-fluoro-5-methoxy-1H-indol-1-yl)-N,N-dimethylpropan-2-amine]	B (does not activate 5HT2A sensor assay in agonist mode)	B (does not activate 5HT2A sensor assay in agonist mode)	B (does not activate 5HT2A sensor assay in agonist mode)	A (inhibits 5HT response by >100%)	A (inhibits 5HT response by >100%)	A (inhibits 5HT response by >100%)	> 10 µM	1.5 to 3	1.5 to 3
COc1ccc2c(ccn2CCN2CC3(COC3)C2)c1 [Example 84, 6-(2-(5-methoxy-1H-indol-1-yl)ethyl)-2-oxa-6-azaspiro[3.3]heptane]	B (does not activate 5HT2A sensor assay in agonist mode)	B (does not activate 5HT2A sensor assay in agonist mode)	A (activates 5HT2A sensor assay in agonist mode)	B (inhibits 5HT response by 75% to 100%)	B (inhibits 5HT response by 75% to 100%)	B (inhibits 5HT response by 75% to 100%)	> 10 µM	1.5 to 3	1.5 to 3
COc1ccc2c(ccn2CCN2CCOCC2)c1 [Example 46, 4-(2-(5-methoxy-1H-indol-1-yl)ethyl)morpholine]	B (does not activate 5HT2A sensor assay in agonist mode)	B (does not activate 5HT2A sensor assay in agonist mode)	B (does not activate 5HT2A sensor assay in agonist mode)	A (inhibits 5HT response by >100%)	A (inhibits 5HT response by >100%)	A (inhibits 5HT response by >100%)	> 10 µM	1.5 to 3	1.5 to 3
Clc1ccc2c(ccn2CCN2CCOCC2)c1 [Example 49, 4-(2-(5-chloro-1H-indol-1-yl)ethyl)morpholine]	B (does not activate 5HT2A sensor assay in agonist mode)	B (does not activate 5HT2A sensor assay in agonist mode)	A (activates 5HT2A sensor assay in agonist mode)	A (inhibits 5HT response by >100%)	B (inhibits 5HT response by 75% to 100%)	C (inhibits 5HT response by <75%)	> 10 µM	1.5 to 3	1.5 to 3
C[C@H](Cn1ccc2cc(F)c(F)cc21)N(C)C [Example 68, (R)-1-(5,6-difluoro-1H-indol-1-yl)-N,N-dimethylpropan-2-amine]	B (does not activate 5HT2A sensor assay in agonist mode)	B (does not activate 5HT2A sensor assay in agonist mode)	A (activates 5HT2A sensor assay in agonist mode)	B (inhibits 5HT response by 75% to 100%)	A (inhibits 5HT response by >100%)	A (inhibits 5HT response by >100%)	> 10 µM	1.5 to 3	> 3
COc1ccc2c(ccn2CCN2CCCC2)c1 [Example 44, 5-methoxy-1-(2-(pyrrolidin-1-yl)ethyl)-1H-indole]	B (does not activate 5HT2A sensor assay in agonist mode)	B (does not activate 5HT2A sensor assay in agonist mode)	B (does not activate 5HT2A sensor assay in agonist mode)	C (inhibits 5HT response by <75%)	A (inhibits 5HT response by >100%)	A (inhibits 5HT response by >100%)	> 10 µM	1.5 to 3	> 3
C[C@H](Cn1ccc2c(F)c(F)ccc21)N(C)C [Example 67, (R)-1-(4,5-difluoro-1H-indol-1-yl)-N,N-dimethylpropan-2-amine]	B (does not activate 5HT2A sensor assay in agonist mode)	B (does not activate 5HT2A sensor assay in agonist mode)	B (does not activate 5HT2A sensor assay in agonist mode)	A (inhibits 5HT response by >100%)	A (inhibits 5HT response by >100%)	A (inhibits 5HT response by >100%)	> 10 µM	1.5 to 3	> 3
